Measurements from PubChem BioAssay (NCI).
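How tested: cells in 96-well plates exposed to compound for 48 hours at five concentrations. The concentration for 50% growth inhibition is given as GI50. TGI is the concentration that stops growth completely.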

How the values were obtained:
Assay in all cases: DTP human tumour cell line panel, 48 h
UACC-257 melanoma = test system: UACC-257 melanoma
CAKI-1 renal = test system: CAKI-1 renal
EKVX NSCLC = test system: EKVX NSCLC
RXF 393 renal = test system: RXF 393 renal
NCI-H226 lung = test system: NCI-H226 lung
SF-539 CNS = test system: SF-539 CNS
SW-620 colon = test system: SW-620 colon
UACC-62 melanoma = test system: UACC-62 melanoma
UO-31 renal = test system: UO-31 renal
PC-3 prostate = test system: PC-3 prostate

Row | SMILES | TGI (UACC-257 melanoma) [µM] | TGI (CAKI-1 renal) [µM] | TGI (EKVX NSCLC) [µM] | TGI (RXF 393 renal) [µM] | TGI (NCI-H226 lung) [µM] | TGI (SF-539 CNS) [µM] | TGI (SW-620 colon) [µM] | GI50 (UACC-257 melanoma) [µM] | GI50 (CAKI-1 renal) [µM] | GI50 (EKVX NSCLC) [µM] | GI50 (RXF 393 renal) [µM] | GI50 (UACC-62 melanoma) [µM] | TGI (UACC-62 melanoma) [µM] | GI50 (SW-620 colon) [µM] | GI50 (UO-31 renal) [µM] | TGI (UO-31 renal) [µM] | GI50 (PC-3 prostate) [µM] | TGI (PC-3 prostate) [µM] | GI50 (NCI-H226 lung) [µM] | GI50 (SF-539 CNS) [µM]
1 | CC(C)C(NCc1c2ccccc2nc2ccccc12)C(=O)O (centres undefined) | > 100 | > 100 | > 100 | > 100 | > 100 | > 100 | > 100 |  |  |  |  |  |  |  |  |  |  |  |  | 
2 | Cc1c(-c2ccnc(N)n2)c2c(n1-c1ccccc1)C(=O)c1ccccc1C2=O | 91.9 | 62.6 | 63.7 | 56.5 |  |  | > 100 | 34.2 | 17 | 21.5 | 22.1 | 27.2 | 77.2 | 38.9 | 13.5 | 51.1 | > 100 | > 100 |  | 
3 | CCC1C(=O)OCc2c1cc1n(c2=O)Cc2ccccc2-1 (centres undefined) | > 100 | > 100 | > 100 | > 100 | > 100 | > 100 | > 100 |  |  |  |  |  | > 100 |  |  | > 100 |  |  |  | 
4 | CC(C)S(=O)(=O)ON1C(=O)c2ccc([N+](=O)[O-])cc2C1=O | > 100 | > 100 | > 100 | > 100 | > 100 | > 100 | > 100 |  |  |  |  |  | > 100 |  |  | > 100 |  |  |  | 
5 | O=C1CCC(=O)C(C(=O)CCC(=O)Nc2ccc(Cl)cc2)C1 (centres undefined) | > 100 | > 100 | > 100 |  | > 100 | > 100 | > 100 |  |  |  |  |  | > 100 |  |  | > 100 |  |  |  | 
6 | COc1cc2ccc(C(=O)O)cc2cc1OC | > 100 |  | > 100 | > 100 | > 100 | > 100 | > 100 |  |  |  |  |  | > 100 |  |  | > 100 |  |  |  | 
7 | Cc1cccc2c1C(=O)OC2(c1cccc2ccccc12)c1cccc2ccccc12 | > 100 | > 100 | > 100 | 94.3 | > 100 |  | > 100 |  |  |  |  |  | > 100 |  |  | > 100 |  |  |  | 
8 | Nc1ccc(Sc2ccc3c4c2cccc4c(=O)n2c4ccccc4nc32)cc1 | 43.5 | 8.48 |  | 34.5 | 11.3 | 15.6 | > 100 | 11.8 | 1.82 |  | 6.9 | 2.48 | 16.1 | 5.16 | 2.43 | 18.7 | 2.67 | 21.7 | 2.43 | 3.11
9 | CC(C)N(C(=O)C12C3C4C5C3C1(C(=O)N(C(C)C)C(C)C)C5C42)C(C)C (centres undefined) | > 100 | > 100 | > 100 | > 100 | > 100 | > 100 | > 88.2 |  |  |  |  |  | > 100 |  |  | > 100 |  |  |  | 
10 | Cc1ccc(/C=C2\CN(C(=O)CCN3CCC(=NO)CC3)C/C(=C\c3ccc(C)cc3)C2=O)cc1 |  |  | 8.07 | 3.05 | 3.86 | 3.27 |  |  |  | 2.72 | 1.64 |  |  |  | 1.42 | 2.73 |  |  | 1.83 | 1.77
11 | Clc1ccc2c(NCCNc3nc(Cl)nc4ccccc34)ccnc2c1 | 3.54 |  | 3.56 | 3.37 | 3.53 | 3.12 | 0.636 | 1.89 |  | 1.79 | 1.73 | 1.81 | 3.49 | 0.271 | 1.5 | 2.94 | 1.6 | 3.12 | 1.82 | 1.6
12 | Nc1ccc(C(=O)N/C(=C\c2ccc3c(c2)OCO3)c2nc3ccc4c(c3[nH]2)C(=O)c2ccccc2C4=O)cc1 | > 100 | > 100 | > 100 | 42.4 |  | > 100 | > 100 |  |  |  |  |  | > 100 |  |  | 18.7 |  |  |  | 
13 | CN(C)/C=C/C(=O)c1cccc(C(=O)/C=C/N(C)C)n1 | > 100 |  | > 100 | > 100 | > 100 | > 100 | > 100 |  |  |  |  |  | > 100 |  |  | > 100 |  |  |  | 
14 | c1ccc2c(Nc3ccc4c(c3)OCO4)c3ccoc3nc2c1 |  | 33.3 |  | 23.1 | > 100 |  |  |  | 12.3 |  | 3.53 | 13.9 | 33.1 |  | 23.6 | > 100 | 18.9 | 95.5 | 25.5 | 
15 | Cn1cc(C2=C(c3cn(C)c4cc(Cl)ccc34)C(=O)NC2=O)c2ccccc21 | > 25 |  |  |  | > 25 | 0.141 | > 25 | 0.169 |  |  |  | 0.0981 | > 25 | 0.1 | 0.195 | > 25 | 0.0796 | > 25 | 2.08 | 0.0556
16 | COC(=O)[C@@H](C)C[C@H](Cc1ccccc1)NC(=O)c1csc([C@@H](C[C@H](C(C)C)N(C)C(=O)[C@@H](NC(=O)CN(C)C)C2CC2)OC(C)=O)n1 |  | > 16.5 | > 16.5 |  | > 13.2 | 0.0925 | > 16.5 |  | 1.3 | 0.208 |  | 0.0112 | > 16.5 | 0.0137 | 0.478 | > 16.5 | 0.0267 | > 16.5 | 0.554 | 0.022
17 | O=C(/C=C/c1ccc(OCCCOc2ccc(/C=C/C(=O)c3ccc(Cl)cc3)cc2)cc1)c1ccc(Cl)cc1 | > 100 | > 100 | > 100 | > 100 | > 100 | > 100 | > 100 |  |  |  |  |  | > 100 |  |  |  |  |  |  | 
18 | COc1cccc(C2N3CCCCC3[C@@H]3c4[nH]c5ccccc5c4CCN23)c1OC (some centres undefined) | 30.1 | 33.5 | 32 | 27.9 |  | 28.5 | 33.4 |  |  |  |  |  | 24 |  |  | 28.1 |  |  |  | 
19 | CCC(C)Cn1c(C)nc2c1C(=O)c1ccccc1C2=O (centres undefined) | 62.3 |  | > 100 | > 100 | > 100 | 59.5 | > 100 |  |  |  |  |  | 27.5 |  |  | 87.8 |  |  |  | 
20 | Cc1nc(=O)n2c(c1C(=O)Nc1ccc(Cl)cc1)NCCC2 |  | > 100 | > 100 | > 100 | > 100 | > 100 | > 100 |  |  |  |  |  | > 100 |  |  |  |  |  |  | 
